Data: US8158021B2, “Polymerizable liquid crystal compound, polymerizable liquid crystal composition, liquid crystalline polymer, and optical anisotropic article” (Zeon Corporation, priority 2007, dated 2012)

Legend:
[1] = Formation of cholesteric phase in cured liquid crystalline polymer film; assay type: physicochemical; parameters: key: A case where a cholesteric phase was formed is indicated by “Formed”; a case where a cholesteric phase was not formed is indicated by “Not formed”; details: composition with polymerizable chiral compound; cured film 4 μm; transmission spectrum
Experimental: The polymerizable liquid crystal composition solution was applied to a glass substrate provided with a rubbed polyimide alignment film using a bar coater (“SA-203” manufactured by Tester Sangyo Co., Ltd., Rod No. 8, shaft diameter: 12.7 mm). After drying the resulting film on a hot plate at 100° C. for three minutes, ultraviolet rays (1000 mJ/cm^2) were applied to the film from a mercury lamp to obtain a cured liquid crystalline polymer film having a thickness of 4 μm.
The transmission spectrum of the cured film was measured using a spectrophotometer (“MCPD-3000” manufactured by Otsuka Electronics Co., Ltd.). A selective reflection region (i.e., a region in which the transmittance was about 50%) was observed when a cholesteric phase was formed. The bandwidth was about 50 to 100 nm. A case where a cholesteric phase was formed is indicated by “Formed”, and a case where a cholesteric phase was not formed is indicated by “Not formed”.

[2] = Measurement of optical anisotropy (value Δn) of cured polymer film; assay type: physicochemical; details: cured polymer film 1.5 μm; retardation at 545.3 nm; Δn=Re/d
Experimental: 2.7 parts of a photoinitiator (“Irgacure 907” manufactured by Ciba Specialty Chemicals Co., Ltd.) was then homogenously dissolved in the solution. The resulting solution was applied to a glass substrate provided with a rubbed polyimide alignment film using a bar coater (“SA-203” manufactured by Tester Sangyo Co., Ltd., Rod No. 4, shaft diameter: 12.7 mm). After drying the resulting film on a hot plate at 100° C. for two minutes, ultraviolet rays (700 mJ/cm^2) were applied to the film from a mercury lamp to obtain a cured polymer film having a thickness of 1.5 μm.
The retardation (Re) of the cured film at a wavelength of 545.3 nm was measured using an ellipsometer (“XLS-100” manufactured by J. A. Woollam). The thickness (d) of the liquid crystal layer was also measured, and the value Δn was calculated by “Δn=Re/d”.

[3] = Measurement of phase transition temperature (liquid crystallinity temperature range); assay type: physicochemical
Experimental: The substrates were heated from 30° C. to 250° C. on a hot plate, and then cooled to 30° C. A change in structure during a change in temperature was observed using a polarization optical microscope (“ECLIPSE LV100POL” manufactured by Nikon Corporation) to measure the phase transition temperature.
In Table 1, “C” indicates “Crystal”, “N” indicates “Nematic”, and “I” indicates “Isotropic”.

[4] = Mutual solubility when forming the cured film; details: at 23° C., naked eye observation of turbidity
Experimental: When forming the cured film of the compound, the mutual solubility of the compound at 23° C. was evaluated by naked eye observation. A case where turbidity was not observed is indicated by “Good”, and a case where turbidity was observed is indicated by “Bad”.

[5] = Solubility in cyclopentanone; details: in cyclopentanone at 60° C., compound concentration 40 wt %
Experimental: The solubility of the compound at 60° C. was evaluated when preparing the solution having a compound concentration of 40 wt %.

[6] = heated from 30° C. to 250° C., then cooled to 30° C., polarization optical microscope

| SMILES | Cholesteric phase [1] | Δn [2] | Liquid crystallinity temperature range [3, 6] | Mutual solubility [4] | Solubility [5] | Liquid crystallinity temperature range ([3]; summary of Table 1) |
| --- | --- | --- | --- | --- | --- | --- |
| C=CC(=O)OCCCCCCOc1ccc(C(=O)Oc2ccc(C=NN=Cc3cc(OC)c(OC(=O)c4ccc(OCCCCCCOC(=O)C=C)cc4)c(OC)c3)cc2)cc1 [Polymerizable liquid crystal compound 5] | Formed | 0.116 | 155 °C or more | – | – | – |
| C=CC(=O)OCCCCCCOc1ccc(C(=O)Oc2ccc(C=NN=Cc3ccc(OC(=O)c4ccc(OCCCCCCOC(=O)C=C)cc4)c(C(=O)OC)c3)cc2C(=O)OC)cc1 [Polymerizable liquid crystal compound 10] | Formed | 0.191 | 130 °C or more | – | – | – |
| C=CC(=O)OCCCCCCOc1ccc(C(=O)Oc2ccc(C=NN=Cc3ccc(OC(=O)c4ccc(OCCCCCCOC(=O)C=C)cc4)c(OCC)c3)cc2)cc1 [Polymerizable liquid crystal compound 4] | Formed | 0.199 | 175 °C or more | – | – | – |
| C=CC(=O)OCCCCCCOc1ccc(C(=O)Oc2ccc(C=NN=Cc3ccc(OC(=O)c4ccc(OCCCCCCOC(=O)C=C)cc4)c(OCC)c3)cc2OCC)cc1 [Polymerizable liquid crystal compound 8] | Formed | 0.200 | 150 °C or more | – | – | – |
| C=CC(=O)OCCCCOC(=O)Oc1ccc(C(=O)Oc2ccc(OC(=O)c3ccc(OC(=O)OCCCCOC(=O)C=C)cc3)c(C)c2)cc1 [compound 12] | Formed | 0.100 | 63 °C | Good | Good | – |
| C=CC(=O)OCCCCCCOc1ccc(C(=O)Oc2ccc(C=NN=Cc3ccc(OC(=O)c4ccc(OCCCCCCOC(=O)C=C)cc4)c(C(=O)OCCOCCC)c3)cc2)cc1 [Polymerizable liquid crystal compound 3] | Formed | 0.176 | 190 °C or more | – | – | – |
| C=CC(=O)OCCCCOC(=O)Oc1ccc(C(=O)Oc2ccc(OC(=O)c3ccc(OC(=O)OCCCCOC(=O)C=C)cc3)c(C)c2)cc1 [Polymerizable liquid crystal compound 12, reference compound] | – | – | – | – | – | narrow temperature range |
| C=CC(=O)OCCCCCCOc1ccc(C(=O)Oc2ccc(C=NN=Cc3ccc(OC(=O)c4ccc(OCCCCCCOC(=O)C=C)cc4)c(C(=O)OCCOC(=O)C=C)c3)cc2)cc1 [Polymerizable liquid crystal compound 7] | Formed | 0.187 | 125 °C or more | – | – | – |
| C=CC(=O)OCCCCOc1ccc(C(=O)Oc2ccc(C=NN=Cc3ccc(OC(=O)c4ccc(OCCCCOC(=O)C=C)cc4)c(OCC)c3)cc2)cc1 [Polymerizable liquid crystal compound 6] | Formed | 0.202 | 170 °C or more | – | – | – |
